In experiment [1] the test system is glutamate receptor of Arabidopsis thaliana. The experiment can be described thus: Real-time imaging assay of Ca2+ signals in recombinant Arabidopsis thaliana p35S::GCaMP3. The settings on record: 3 μL of 100 mM solution (10 mM for some compounds with low solubility) applied to leaf cut; GCaMP3 fluorescence. It counts as in vivo. How it is done:
In this example, Ca2+signals produced by contact of Compounds 1-58 and 67-75 with the glutamate receptor of Arabidopsis thaliana were analyzed by a real-time imaging assay in which Ca2+is visualized by fluorescence color development. That is, by using a recombinant Arabidopsis thaliana p35S: : GCaMP3, which incorporated the gene encoding the calcium-sensitive fluorescent protein GCaMP3, as a material, changes in intracellular Ca2+ levels caused by treatments with Compounds 1-58 and 67-75 were detected as fluorescence luminance of GCaMP3, and thereby Ca2+signal transduction in plant bodies was analyzed in real time.
The real-time imaging assay of the Ca2+signals was performed as follows.
As the plant material, 2-week old recombinant Arabidopsis thaliana p35S: : GCaMP3 grown on sterile agar medium was used. A small cut of about 1 mm was made at the tip of the first leaf with scissors, and the plant was allowed to stand for 35 minutes. The plant was then placed under the field of view of the fluorescence microscope SMZ25 (Nikon Solutions), and 3 μL of a compound solution was applied to the leaf cut. The generated Ca2+signals were examined in real time with ORCA-Flash4.0 V2 (Hamamatsu Photonics). […] Compounds that produced Ca2+signals in one or more leaves were determined to be compounds that induce Ca2+signals.

In experiment [2] the test system is AtOPR^3 gene. The experiment can be described thus: Pest damage resistance gene expression induction by qPCR. The format is in vivo, Arabidopsis thaliana. The settings on record: sixth leaves, 30 minutes after compound treatment of cut first leaf; relative to AtACT8; FIG. 1. An excerpt: As the pest damage resistance gene, the AtOPR^3 (12-oxophytodienoic acid reductase, involved in the jasmonic acid biosynthesis) gene, which is a typical pest damage resistance gene, was selected. As an internal standard, the AtACT8 gene was selected. The recombinant Arabidopsis thaliana p35S: : GCaMP3 was used as a plant material, and cut was formed on the first leaf of the plant cultivated in the same manner as in Example 1 and treated with a compound. As the compound, Compounds 1 and 34 were used. Sixth leaves at 0 and 30 minutes after the compound treatment were collected and frozen in liquid nitrogen. The total RNA was extracted from the frozen leaf samples (50 to 200 mg) by using RNeasy Plant Mini Kit (Qiagen) according to the protocol thereof. The obtained total RNA was subjected to a residual genomic DNA-removing treatment with RNase free DNase I by using TURBO DNase Kit (Ambion) according to the protocol of the kit. By using this total RNA sample and SuperScriptIII First-Strand Synthesis System for RT-PCR (Invitrogen), single-stranded cDNA was prepared. […] The relative expression amount of the AtOPR^3 gene to that of the internal standard AtACT8 gene was calculated by the AACt method. The test was repeatedly performed 4 or 5 times, and the average of the results was calculated.
In general terms: In qPCR the cycle at which signal appears reflects the starting amount.

Experiment [3] deals with Pieris rapae. The experiment can be described thus: 4-hour feeding damage test on Arabidopsis thaliana, comparison with commercial product (Example 4). The format is in vivo. The settings on record: Compound 1 at 100 mM on leaf cut, 4-hour test. How it is done: The recombinant Arabidopsis thaliana […]: : GCaMP3 was used as a plant material, and cut was formed on the first leaf of the plant cultivated in the same manner as those of Examples 1, 2, and 3 and treated with a compound. Compound 1 and Jasmomate were used as the compound. Compound 1 was used at 100 mM, and Jasmomate was used at a 500-fold dilution concentration (0.4 mM as prohydrojasmon concentration), which is the usual recommended treatment concentration thereof. Sorbitol was used as a negative control. The test was conducted for 15 replicates per plot (independent plants and insects). For Jasmomate, a spray treatment of the leaves was performed (spray plot, Jasmomate was sprayed twice at the concentration mentioned above with an atomizer). The test of the spray plot was conducted for 10 replicates (independent plants and insects). One hour after the compound treatment, the plant body and 2-week old larva of Pieris rapae were placed in the same container to perform a 4-hour feeding damage test. The larva was weighed before and after the test, and the weight gain rate of the pest was evaluated.

In experiment [4] the test system is Pieris rapae. The experiment can be described thus: 4-hour feeding damage test on Arabidopsis thaliana (Example 3). It counts as in vivo. The settings on record: for pest damage-suppressing activity: Pieris rapae larva, 4-hour feeding damage test. An excerpt: The recombinant Arabidopsis thaliana […]: : GCaMP3 was used as a plant material, and cut was formed on the first leaf of the plant grown in the same manner as in Example 1 and treated with a compound. Compound 1 was used as the compound. Sorbitol was used as the negative control, and glutamic acid as the positive control. The test was repeatedly conducted 10 times (using independent plants and pests) per plot. One hour after the treatment with the compound, the plant body and 2-week old larva of Pieris rapae were placed in the same container to perform a 4-hour feeding damage test. Weights of the plant body and larva were measured before and after the test to evaluate the weight of the feeding-damaged plant and the weight gain rate of the pest.

In experiment [5] the test system is Spodoptera litura. The experiment can be described thus: Komatsuna leaf disc feeding damage test (Example 5). It counts as in vivo. The settings on record: one day. The protocol:
Glutamic acid was used as a positive control, and Jasmomate Ekizai (the active substance is prohydrojasmon, a typical injurious hormone-like substance), which is the only resistance inducer for pest damage on the market, was used as a control. The test was conducted for 10 replicates per plot (independent plants and pests).
The plant material was leaf discs collected from komatsuna (Brassica rapa var. perviridis) seedlings grown for 1 month after seeding on culture soil in pots, and the test organism was early second instar larva of Spodoptera litura. Compound 1 was used as a 1 mM solution in Silwet L-77 4,000-fold dilution solution prepared by adding Silwet L-77 to distilled water as a solvent. As a negative control, 100 mM or 1 mM sorbitol was used, and 100 mM or 1 mM glutamic acid was used as a positive control. […] One day after the release, the number of surviving Spodoptera litura larvae in each test container was counted, and a photograph was taken from a height of 5 cm above the container with the lid open so that the entire image could be photographed. Image analysis software (ImageJ) was used to determine the damage area (feeding damage area), and the average damage area ratio was calculated for each treatment plot.

“Also recorded” adds a separate entry of the source.

In the case of `N[C@@H](CCC(=O)N[C@@H](CCC(=O)O)C(=O)O)C(=O)O` [Compound 34], the “Ca2+signal induction” value in experiment [1] is “strong Ca2+signal induction”. The “pest damage resistance gene (AtOPR^3) expression-inducing activity” value in experiment [2] is “equal to or greater than that of glutamic acid”.

As for `CC(C)OC(=O)CC[C@H](N)C(=O)O` [Compound 1], the “Ca2+signal induction” value in experiment [1] is on record as “strong Ca2+signal induction”. For the same compound, the pest damage-suppressing activity result in experiment [3] and in experiment [4] was “distinct pest damage-suppressing activity was observed” each time. Further, the “weight gain rate of the pest” value in experiment [3] (vs sorbitol plot, FIG. 4) is recorded as “lower in the Compound 1-treated plot than in the sorbitol-treated plot”; in experiment [4] (2-week old Pieris rapae larva, 4-hour test 1 hour after treatment, vs sorbitol plot, FIG. 3) it was “lower in the Compound 1-treated plot than in the sorbitol-treated plot”. In addition, the “weight of the feeding-damaged plant” value in experiment [4] (2-week old Pieris rapae larva, 4-hour test 1 hour after treatment, vs sorbitol plot, FIG. 2) is “lower in the Compound 1-treated plot than in the sorbitol-treated plot”. Moreover, the “pest damage-suppressing effect (feeding inhibitory effect)” value in experiment [5] (1 mM in Silwet L-77 4,000-fold dilution solution) was “higher than those observed for the 100 mM glutamic acid treatment plot and Jasumomate treatment plot”. The “pest damage resistance gene (AtOPR^3) expression-inducing activity” value in experiment [2] was “equal to or greater than that of glutamic acid; also recorded: high pest damage resistance gene expression-inducing activity”.

With `N[C@@H](CCC(=O)O)C(=O)O` [glutamic acid, reference compound], the pest damage-suppressing activity result in experiment [4] is reported as “no pest damage-suppressing activity was observed”. In experiment [5] (100 mM, compared with 100 mM sorbitol plot), the pest damage-suppressing tendency result is on record as “greater pest damage-suppressing tendency was observed”.
